Assay results as given in ChEMBL document CHEMBL1121730, “beta-Adrenergic blocking agents. alpha- and gamma-methyl(aryloxy)propanolamines” (J Med Chem, 1981).

Biological target: Adrenergic receptor beta (Rattus norvegicus, UniProt P18090+P10608+P26255)
Assay: Binding affinity against Beta adrenergic receptor in C6-2B astrocytoma cells, using [125I]-iodohydroxybenzylpindolol-benzylpindolol([125I]-HYP)
Assay type: cell-based

Row | Kd | SMILES
1 | 0.05 µM | C=CCc1ccccc1OC(C)C(O)CNC(C)C (stereo not given)
2 | 2 µM | CCc1ccc(OC(C)C(O)CNC(C)(C)C)cc1 (stereo not given)
3 | 0.5 µM | CC(C)NCC(O)C(C)Oc1ccc(Cl)c(Cl)c1 (stereo not given)
4 | 0.2 µM | Cc1ccc(OC(C)C(O)CNC(C)C)cc1C (stereo not given)
5 | 0.3 µM | CC(Oc1ccccc1)C(O)CNC(C)(C)C (stereo not given)
6 | 0.015 µM | C=CCc1ccccc1OC(C)C(O)CNC(C)(C)C (stereo not given)
7 | 2 µM | CCc1ccc(OC(C)C(O)CNC(C)C)cc1 (stereo not given)
8 | 0.2 µM | Cc1ccc(OC(C)C(O)CNC(C)(C)C)cc1C (stereo not given)
9 | 0.005 µM | CC(Oc1cccc2ccccc12)C(O)CNC(C)(C)C (stereo not given)
10 | 0.04 µM | CC(C)NCC(O)C(C)Oc1cccc2ccccc12 (stereo not given)
